# Patent US20090030015A1, “NOVEL MULTI-CYCLIC COMPOUNDS” (REVOTAR BIOPHARMACEUTICALS AG, priority 2005, published 2009)
# pIC50: −log10 of the molar value.
# Tests used:
# [1] = biological target: T1, human P-Selectin-IgG-chimera (Homo sapiens, UniProt P16109); assay: Sialyl Lewis X Tyrosine Sulfate Assay (sLex TSA), P-selectin; type: binding; settings: sLexTSA; for P-Selectin [% inhib.]: in vitro inhibition at 100 μM
# T1 sequence (P16109 42-771 limits assumed): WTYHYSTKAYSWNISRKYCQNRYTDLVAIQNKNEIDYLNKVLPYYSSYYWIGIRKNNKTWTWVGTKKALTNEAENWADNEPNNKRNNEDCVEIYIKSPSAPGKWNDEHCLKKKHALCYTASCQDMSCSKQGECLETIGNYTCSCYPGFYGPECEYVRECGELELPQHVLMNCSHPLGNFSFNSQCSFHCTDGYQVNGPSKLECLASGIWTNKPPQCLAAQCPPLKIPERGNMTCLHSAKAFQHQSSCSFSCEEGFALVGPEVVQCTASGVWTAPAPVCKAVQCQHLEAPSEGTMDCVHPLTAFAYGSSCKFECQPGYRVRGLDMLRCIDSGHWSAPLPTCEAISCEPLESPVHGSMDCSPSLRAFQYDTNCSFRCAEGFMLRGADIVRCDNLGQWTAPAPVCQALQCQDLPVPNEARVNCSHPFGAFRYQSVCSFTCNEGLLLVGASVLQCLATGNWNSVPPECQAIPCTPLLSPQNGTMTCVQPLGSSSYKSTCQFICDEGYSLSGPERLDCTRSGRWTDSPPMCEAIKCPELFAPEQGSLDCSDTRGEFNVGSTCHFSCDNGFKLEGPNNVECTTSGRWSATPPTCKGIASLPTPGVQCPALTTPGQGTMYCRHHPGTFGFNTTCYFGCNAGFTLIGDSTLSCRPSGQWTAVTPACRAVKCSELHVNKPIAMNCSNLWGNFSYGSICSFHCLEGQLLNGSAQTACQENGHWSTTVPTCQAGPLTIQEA
# Procedure: (§1) Sialyl Lewis^X Tyrosine Sulfate Assay (sLe^x TSA):
# (§2) Compounds of the present invention are assayed on a molecular level for their ability to inhibit the binding of P-, L-, or E-selectin chimeric molecules to sLe^x and tyrosinesulfate residues linked to a polymeric matrix as a PSGL-1 substitute. Selected IC50-values are determined.
# (§3) Microtiter plates are coated overnight in carbonate buffer pH9.6 with goat anti human Fc mAB (10 μg/ml). After washing in assay buffer (25 mM 4-(2-hydroxyethyl)-1-piperazineethanesulfonic acid (HEPES), 150 mM NaCl, 1 mM CaCl2 pH7.4) and blocking (3% bovine serum albumin (BSA) in assay buffer) plates are incubated for 2 h at 37° C. with human P-Selectin-IgG-chimera (0.61 nM respectively 150 ng/mL) or human L-Selectin-IgG-chimera (0.61 nM respectively 89 ng/mL) or human E-Selectin-IgG-chimera (0.61 nM respectively 131 ng/mL). 5 μl of sLe^x-tyrosine sulfate polyacrylamide (1 mg/ml) carrying 15% sLe^x, 10% Tyrosine-sulfate and 5% biotin is complexed with 20 μl Streptavidin-Peroxidase solution (1 mg/ml) and 25 μl assay buffer without CaCl2. For use in the assay, the ligand complex is diluted 1:10000 in assay buffer and further diluted 1:1 with varying amounts of compounds in assay buffer incl. 2% DMSO. This mixture is added to the wells precoated with E- or P-selectin. After incubation for 2 h at 37° C., wells are washed for six times with in assay buffer incl. 0.005% Polyoxyethylenesorbitan monolaurate (TWEEN 20), developed for 10-15 min with 20 μl 3,3′,5,5′-tetramethylbenzidine (TMB)/H2O2 substrate solution and stopped with 20 μl 1M H2SO4. Bound sLe^x-Tyrosine sulfate ligand complex is determined by measuring optical density at 450 nm vs. 620 nm in a Fusion alpha-FP reader (sold from Packard Bioscience, Dreieich, Germany).
# [2] = biological target: T2, human L-Selectin-IgG-chimera (Homo sapiens, UniProt P14151); assay: Sialyl Lewis X Tyrosine Sulfate Assay (sLex TSA), L-selectin; type: binding; settings: sLexTSA; for L-Selectin [% inhib.]: in vitro inhibition at 100 μM
# T2 construct: fused on or other part: human IgG Fc part, captured on the plate by goat anti human Fc antibody; a tag, no second protein
# T2 sequence (P14151 39-318 limits assumed): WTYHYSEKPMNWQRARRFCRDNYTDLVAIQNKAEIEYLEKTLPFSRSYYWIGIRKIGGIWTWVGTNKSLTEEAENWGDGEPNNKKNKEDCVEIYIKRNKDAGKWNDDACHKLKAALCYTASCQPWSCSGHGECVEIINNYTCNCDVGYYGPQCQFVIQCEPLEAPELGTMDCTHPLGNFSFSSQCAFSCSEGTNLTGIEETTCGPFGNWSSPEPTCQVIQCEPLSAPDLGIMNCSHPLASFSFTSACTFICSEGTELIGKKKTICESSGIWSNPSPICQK
# Procedure: as §1, §2, §3
# [3] = biological target: T3, human E-Selectin-IgG-chimera (Homo sapiens, UniProt P16581); assay: Sialyl Lewis X Tyrosine Sulfate Assay (sLex TSA), E-selectin; type: binding; settings: sLexTSA; for E-Selectin [% inhib.]: in vitro inhibition at 100 μM
# T3 construct: fused on or other part: human IgG Fc part, captured on the plate by goat anti human Fc antibody; a tag, no second protein
# T3 sequence (P16581 22-175 limits assumed): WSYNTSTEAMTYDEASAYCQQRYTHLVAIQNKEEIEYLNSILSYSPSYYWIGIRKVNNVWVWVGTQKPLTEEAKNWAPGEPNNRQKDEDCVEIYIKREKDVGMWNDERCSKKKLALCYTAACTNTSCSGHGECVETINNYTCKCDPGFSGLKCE
# Procedure: as §1, §2, §3
# [4] = tested on: human E-selectin-IgG chimera; assay: Flow chamber assay, cell adhesion and rolling under flow conditions, E-selectin; type: cell-based; settings: normalized ratio of %-inhibition of compound divided by %-inhibition of bimosiamose; 125 μM compound; HL-60 cells; flow shear 1 dyne/cm^2
# Procedure: (§4) Flow Chamber Assay/Cell Adhesion and Rolling Under Flow Conditions
# (§5) To assess the capability of compounds to inhibit cell binding under dynamic conditions resembling the flow in a blood vessel, flow chamber assays addressing/testing binding of HL-60 cells/various cell lines to P-selectin, L-selectin and E-selectin chimeric molecules are performed.
# (§6) Cell attachment under flow conditions is determined using a parallel flow chamber system. A 35 mm polystyrene culture dish is coated for 1 hour at room temperature with coating buffer (50 mM tris-(hydroxymethyl)aminomethane buffer (Tris), 150 mM NaCl, 2 mM CaCl2; pH 7.4) containing human E- or P-selectin-IgG chimera at concentrations of 2.5 μg/ml or 10 μg/ml, respectively. After removal of the coating solution non specific binding sites are blocked for an additional hour with 1% BSA in coating buffer at room temperature. After washing with assay buffer (“Roswell Park Memorial Institute 1640” (RPMI 1640)+10 mM HEPES) the dish is fitted into a parallel plate laminar flow chamber (sold from Glycotech, Rockville, Md.) and mounted on an inverted phase-contrast microscope (sold from Olympus, Hamburg, Germany) equipped with a CCD camera (JVC) that is connected to a PC. Employing a peristaltic pump (sold from Ismatec, Wertheim-Mondfeld, Germany) the re-circulating system is equilibrated with assay buffer containing 125 μM compound or vehicle control (DMSO). Cells (1 million/ml) are added to the chamber and allowed to distribute for 2 minutes at a high flow rate. The flow rate is then decreased resulting in a calculated flow shear of 1 dyne/cm^2. Video sequences of 10 low power fields are digitally recorded after 5 minutes continuous flow. The percentage of inhibition is calculated from the mean number of cells per field that attached to the coated dish surface in the presence versus absence of compound […].
# [5] = tested on: human P-selectin-IgG chimera; assay: Flow chamber assay, cell adhesion and rolling under flow conditions, P-selectin; type: cell-based; settings: normalized ratio of %-inhibition of compound divided by %-inhibition of bimosiamose; 125 μM compound; HL-60 cells; flow shear 1 dyne/cm^2
# Procedure: as §4, §5, §6
pIC50 [1],pIC50 [2],pIC50 [3],P-Selectin [% inhib.] [1] [% inhib.],L-Selectin [% inhib.] [2] [% inhib.],E-Selectin [% inhib.] [3] [% inhib.],Compound,E-Selectin [Ratio] [4] [Ratio],P-Selectin [Ratio] [5]
3.87,3.42,< 3.30,–,–,–,"COc1cc(CC(=O)Nc2ccc(-c3cc(C(=O)O)c(C)o3)cc2)cc(OC)c1 [Compound 30, 5-{4-[2-(3,5-Dimethoxy-phenyl)-acetylamino]-phenyl}-2-methyl-furan-3-carboxylic acid]",1.03,n.s.
–,–,–,9.4,19.3,40.9,Cc1c(NC(=O)CCCNC(=O)c2cc(O)cc(O)c2)cccc1C(=O)O [Compound 38],–,–
–,–,–,2.9,10.9,24.8,O=C(CCCNC(=O)c1cc(O)cc(O)c1)NCc1ccc(C(=O)O)cc1 [Compound 39],–,–
3.63,3.56,3.32,–,–,–,"Cc1oc(-c2ccc(NC(=O)c3cncc(-c4ccc(O)cc4O)c3)cc2)cc1C(=O)O [Compound 76, 5-(4-{[5-(2,4-Dihydroxy-phenyl)-pyridine-3-carbonyl]-amino}-phenyl)-2-methyl-furan-3-carboxylic acid]",0.61,1.26 Ratio

# The remaining lines, values behind:
Compound,pIC50 [1],pIC50 [2],pIC50 [3],P-Selectin [% inhib.] [1] [% inhib.],L-Selectin [% inhib.] [2] [% inhib.],E-Selectin [% inhib.] [3] [% inhib.],E-Selectin [Ratio] [4] [Ratio],P-Selectin [Ratio] [5]
"COc1ccc(CC(=O)Nc2ccc(-c3cc(C(=O)O)c(C)o3)cc2)c(OC)c1 [Compound 28, 5-{4-[2-(2,4-Dimethoxy-phenyl)-acetylamino]-phenyl}-2-methyl-furan-3-carboxylic acid]",3.62,3.50,3.70,–,–,–,0.99,n.s.
COC(=O)c1ccc(C)c(NC(=O)CCCNC(=O)c2cc(O)cc(O)c2)c1 [Compound 37],–,–,–,5.2,9.5,38.9,–,–
COC(=O)c1ccc(CNC(=O)CCCNC(=O)c2cc(O)cc(O)c2)cc1 [Compound 40],–,–,–,28.2,31.1,34.4,–,–
